The supplement of paper PMC10307832

What was measured:
Test in all cases: relative viability (nuclei count vs DMSO), 5 days (fraction); higher = more cells survive
[1] = compound: Cc1ccc2nc(NCCN)c3ncc(C)n3c2c1 + C[C@]1(O)C[C@@H](c2nc(-c3ccc4ccc(-c5ccccc5)nc4c3)c3c(N)nccn32)C1 [Linsitinib] (partner 1 µM)
Summary of the method: (§1)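 Five library-drug doses in √10 steps were combined with a fixed anchor-drug dose, or a single drug was given alone, by pin tool to lung cancer cell lines in 1536-well plates the day after seeding. Nuclei were stained and counted after 5 days. Relative viability is the nuclei count in treated wells over that in vehicle wells, taken as the median of duplicate plates.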

Salubrinal + Alpelisib = compound: O=C(/C=C/c1ccccc1)NC(NC(=S)Nc1cccc2cccnc12)C(Cl)(Cl)Cl [Salubrinal] + Cc1nc(NC(=O)N2CCC[C@H]2C(N)=O)sc1-c1ccnc(C(C)(C)C(F)(F)F)c1 [Alpelisib] (partner 2 µM)
Summary of the method: as §1

[2] = compound: Cc1ccc2nc(NCCN)c3ncc(C)n3c2c1 + CC1(C)CCC(c2ccc(Cl)cc2)=C(CN2CCN(c3ccc(C(=O)NS(=O)(=O)c4ccc(N[C@H](CCN5CCOCC5)CSc5ccccc5)c(S(=O)(=O)C(F)(F)F)c4)cc3)CC2)C1 [Navitoclax] (partner 0.5 µM)
Summary of the method: as §1

[3] = compound: Cc1ccc2nc(NCCN)c3ncc(C)n3c2c1 + CC(C)C[C@H](NC(=O)[C@H](Cc1ccccc1)NC(=O)c1cnccn1)B(O)O [Bortezomib] (partner 0.002 µM)
Summary of the method: as §1

Cell Line: UMC-11
- relative viability ([1]; first compound 0.04 µM): 1.03
- relative viability ([1]; first compound 0.1265 µM): 0.94
- relative viability ([1]; first compound 0.4 µM): 1
- relative viability ([1]; first compound 1.265 µM): 1.12
- relative viability ([1]; first compound 4 µM): 0.956
- relative viability (Salubrinal + Alpelisib; first compound 0.08 µM): 1.29
- relative viability (Salubrinal + Alpelisib; first compound 0.253 µM): 0.782
- relative viability (Salubrinal + Alpelisib; first compound 0.8 µM): 1.11
- relative viability (Salubrinal + Alpelisib; first compound 2.53 µM): 0.963
- relative viability (Salubrinal + Alpelisib; first compound 8 µM): 0.89
- relative viability ([2]; first compound 0.04 µM): 0.315
- relative viability ([2]; first compound 0.1265 µM): 0.342
- relative viability ([2]; first compound 0.4 µM): 0.33
- relative viability ([2]; first compound 1.265 µM): 0.324
- relative viability ([2]; first compound 4 µM): 0.365
- relative viability ([3]; first compound 0.04 µM): 0.818
- relative viability ([3]; first compound 0.1265 µM): 0.809
- relative viability ([3]; first compound 0.4 µM): 0.667
- relative viability ([3]; first compound 1.265 µM): 0.795
- relative viability ([3]; first compound 4 µM): 0.671
